Experimental data taken from ChEMBL document CHEMBL2346619, “Cardioprotective potential of N,α-L-rhamnopyranosyl vincosamide, an indole alkaloid, isolated from the leaves of Moringa oleifera in isoproterenol induced cardiotoxic rats: in vivo and in vitro studies” (Bioorg Med Chem Lett, 2013).
Converted amounts (≈) assume the structure as drawn.

Assays:
[1] = test system: Rattus norvegicus; assay: Cardioprotective effect in isoproterenol-induced Wister albino rats assessed as inhibition of heart rate at 40 mg/kg, po for 7 days by Electrocardiographic assay (reference value: 430 +/- 5.16 beats/mins); type: functional
[2] = test system: Rattus norvegicus; assay: Cardioprotective effect in isoproterenol-induced Wister albino rats assessed as cTnT level in serum at 40 mg/kg, po for 7 days (reference value: 1.99 +/- 0.06 ng/ml); type: functional
[3] = Antioxidant activity assessed as super oxide scavenging activity; type: functional
[4] = test system: Rattus norvegicus; assay: Effect on Wister albino rat LOOH level in serum per mg of protein at 40 mg/kg, po for 7 days (reference value: 2.90 +/- 0.74 noml/mg of protein); type: ADME, organism-based; parameters: dose 40 mg/kg, route oral; details: in vivo, 168 h
[5] = test system: Rattus norvegicus; assay: Effect on Wister albino rat ST-segment elevation at 40 mg/kg, po by Electrocardiographic assay (reference value: 0.157 +/- 0.003 mV); type: ADME, organism-based; parameters: dose 40 mg/kg, route oral; details: in vivo
[6] = test system: Radical scavenging activity; assay: Antioxidant activity assessed as DPPH radical scavenging activity; type: functional
[7] = test system: Rattus norvegicus; assay: Effect on Wister albino rat cTnT level in serum at 40 mg/kg, po for 7 days (reference value: 0.66 +/- 0.02 ng/ml); type: ADME, organism-based; parameters: dose 40 mg/kg, route oral; details: in vivo, 168 h
[8] = test system: Rattus norvegicus; assay: Cardioprotective effect in isoproterenol-induced Wister albino rats assessed as LOOH level in serum per mg protein at 40 mg/kg, po for 7 days (reference value: 7.67 +/- 1.07 noml/mg of protein); type: functional
[9] = test system: Rattus norvegicus; assay: Cardioprotective effect in isoproterenol-induced Wister albino rats assessed as inhibition of ST-segment elevation at 40 mg/kg, po for 7 days by Electrocardiographic assay (reference value: 0.390 +/- 0.015 mV); type: functional
[10] = test system: Rattus norvegicus; assay: Cardioprotective effect in isoproterenol-induced Wister albino rats assessed as SGPT level in serum at 40 mg/kg, po for 7 days (reference value: 76.07 +/- 4.16 U/L); type: functional
[11] = Antioxidant activity assessed as hydroxy radical scavenging activity; type: functional
[12] = test system: Rattus norvegicus; assay: Effect on Wister albino rat LDH level in serum at 40 mg/kg, po for 7 days (reference value: 29.64 +/- 6.71 IU/L); type: ADME, organism-based; parameters: dose 40 mg/kg, route oral; details: in vivo, 168 h
[13] = test system: Rattus norvegicus; assay: Effect on Wister albino rat tissue degradation at 40 mg/kg, po by light microscopy (reference value: 0%); type: ADME, organism-based; parameters: dose 40 mg/kg, route oral; details: in vivo
[14] = test system: Rattus norvegicus; assay: Effect on Wister albino rat heart rate elevation at 40 mg/kg, po by Electrocardiographic assay (reference value: 265 +/- 3.71 beats/mins); type: ADME, organism-based; parameters: dose 40 mg/kg, route oral; details: in vivo
[15] = test system: Rattus norvegicus; assay: Effect on Wister albino rat MDA level in serum per mg of protein at 40 mg/kg, po for 7 days (reference value: 0.67 +/- 0.03 nmol/h/mg of protein); type: ADME, organism-based; parameters: dose 40 mg/kg, route oral; details: in vivo, 168 h
[16] = test system: Rattus norvegicus; assay: Cardioprotective effect in isoproterenol-induced Wister albino rats assessed as CK-MB level in serum at 40 mg/kg, po for 7 days (reference value: 146.56 +/- 7.14 IU/L); type: functional
[17] = Antioxidant activity assessed as nitric oxide scavenging activity; type: functional
[18] = test system: Rattus norvegicus; assay: Cardioprotective effect in isoproterenol-induced Wister albino rats assessed as tissue degradation at 40 mg/kg, po for 7 days by light microscopy (reference value: 55.15%); type: functional
[19] = test system: Rattus norvegicus; assay: Effect on Wister albino rat CK-MB level in serum at 40 mg/kg, po for 7 days (reference value: 84.68 +/- 3.67 IU/L); type: ADME, organism-based; parameters: dose 40 mg/kg, route oral; details: in vivo, 168 h
[20] = test system: Rattus norvegicus; assay: Cardioprotective effect in isoproterenol-induced Wister albino rats assessed as LDH level in serum at 40 mg/kg, po for 7 days (reference value: 216.66 +/- 12.46 IU/L); type: functional
[21] = test system: Rattus norvegicus; assay: Cardioprotective effect in isoproterenol-induced Wister albino rats assessed as tissue viability with less necrotic tissue at 40 mg/kg, po for 7 days by light microscopy (reference value: 52%); type: functional
[22] = test system: Rattus norvegicus; assay: Effect on Wister albino rat inflammatory cells at 40 mg/kg, po by light microscopy (reference value: 0%); type: ADME, organism-based; parameters: dose 40 mg/kg, route oral; details: in vivo
[23] = test system: Rattus norvegicus; assay: Cardioprotective effect in isoproterenol-induced Wister albino rats assessed as inflammatory cells at 40 mg/kg, po for 7 days by light microscopy (reference value: 30.1%); type: functional
[24] = test system: Rattus norvegicus; assay: Cardioprotective effect in isoproterenol-induced Wister albino rats assessed as MDA level in serum per mg protein at 40 mg/kg, po for 7 days (reference value: 2.76 +/- 0.39 nmol/h/mg of protein); type: functional
[25] = Antioxidant activity assessed as ABTS radical scavenging activity; type: functional
[26] = test system: Rattus norvegicus; assay: Effect on Wister albino rat SGPT level in serum at 40 mg/kg, po for 7 days (reference value: 30.25 +/- 3.17 U/L); type: ADME, organism-based; parameters: dose 40 mg/kg, route oral; details: in vivo, 168 h

C=C[C@H]1[C@H](O[C@@H]2O[C@H](CO)[C@@H](O)[C@H](O)[C@H]2O)OC=C2C(=O)N3CCc4c(n(O[C@@H]5O[C@@H](C)[C@H](O)[C@@H](O)[C@H]5O)c5ccccc45)[C@H]3C[C@H]21
Activity [1]: 260 bpm | Activity [2]: 0.67 ng/mL | IC50 [3]: 16.71 µg/mL (≈ 25.3 µM) | Activity [4]: 2.62 nmol | Activity [5]: 0.14 mV | IC50 [6]: 37.76 µg/mL (≈ 57.2 µM) | Activity [7]: 0.62 ng/mL | Activity [8]: 4.1 nmol | Activity [9]: 0.22 mV | Activity [10]: 58.92 U/L | IC50 [11]: 4.95 µg/mL (≈ 7.49 µM) | Activity [12]: 117.34 IU/L | Activity [13]: 0% | Activity [14]: 270 bpm | Activity [15]: 0.79 nmol/h/mg protein | Activity [16]: 92.01 IU/L | IC50 [17]: 7.16 µg/mL (≈ 10.8 µM) | Activity [18]: 0% | Activity [19]: 82.12 IU/L | Activity [20]: 160.72 IU/L | Activity [21]: 20% | Activity [22]: 0% | Activity [23]: 0% | Activity [24]: 0.99 nmol/h/mg protein | IC50 [25]: 29.65 µg/mL (≈ 44.9 µM) | Activity [26]: 22.11 U/L
